Here are results for one compound from patent publication US20240024216A1, “METHODS AND MATERIALS FOR TREATING HAIR LOSS” (The Penn State Research Foundation, priority 2021, published 2024).

The experiment relates to wound healing mouse skin sections. Nature of the experiment: Immunostaining and western blot of day 14 wound tissue markers. In kind it is in vivo, mice. The procedure:
Briefly, immunohistochemical and immunofluorescence analysis were performed on 5 μm thick wound healing mouse skin sections. The sections were deparaffinized and subjected to an antigen retrieval process by using sodium citrate buffer at 95° C. followed by immersed in 0.5% triton X-100. The section slides were blocked using 5% goat serum in 0.1% PBS-T for 1 hour. The following primary antibodies mouse monoclonal [LL002] anti-Cytokeratin14 (catalog No.—ab7800; IF-1:100), rat CD31 antibody (Catalog No.—553370; IF-1:100), mouse S100 antibody (Catalog No.—MA5-12969; IF-1:200), rabbit nerve growth factor receptor—p75-NTR antibody (Catalog No.—AB1554; IF and WB-1:500), Chicken neurofilament Heavy-NFH antibody (Catalog No.—NB300-217; IF-1:500), mouse alpha-smooth muscle actin —α-SMA antibody (Catalog No.—14-9760-82; IF-1:200 and WB-1:500), mouse TGF beta antibody (Catalog No.—27969; IF-1:100 and WB-1:500), rabbit Ki67 antibody (Catalog No.—9129S; IF-1:400), chicken keratin 15 antibody (Catalog No. —833901; IF-1:500), rabbit K17 antibody (gift from Pierre a. coulombe Lab; IF-1:1000), rabbit interleukin-1 beta antibody (Catalog No.—GTX74034; IF-1:100), rat F4/80 antibody (Catalog No.—MCA497GA; IF-1:100), mouse anti-SOX10 antibody (Catalog No.—sc-365692; IF-1:100 and WB-1:200), chicken anti-myelin basic protein antibody (Catalog No.—MBP; IF-1:1000), rabbit vimentin antibody (Catalog No.—10366-1-AP; IF-1:200), rabbit NGF antibody (Catalog No.—MA5-32067; IF-1:100 and WB-1:1000), mouse PGP 9.5 antibody (Catalog No.—PA5-29012; IF-1:200), chicken anti-P-zero myelin protein antibody (Catalog No.—PZO; IF-1:200), and rat substance P antibody (Catalog No. —NB100-65219; IF-1:100) were overnight incubated with 5% BSA in 0.1% PBS-T for IF stain and/or 5% skimmed milk in 0.1% TBS-T for Western blot at 4° C., then incubated with secondary antibodies for 1 hour at room temperature. The ProLong™ Gold Anti-fade Mountant with DAPI (Invitrogen, Caltlog No. P36935) used as nuclear counterstain. The immunofluorescence stained sections were imaged using ZEISS Axio Observer 7—Axiocam 506 mono—Apotome.2 microscope. The image analysis and quantification were formed either using ZEN 2.6 pro (Zeiss) imaging software or ImageJ-1.53e software (National Institutes of Health, USA).
For protein isolation the harvested skin tissue was flash frozen immediately. The frozen skin tissue ground to a fine power using a liquid nitrogen mortar. The harvested cells and/or tissue powder dissolved in RIPA buffer containing Halt™ Phosphatase (Thermo Scientific, Catlog No. 78420,) and Protease Inhibitor Cocktail (Roche complete tablets mini EASYpack, Catlog No. 04694124001). Tissue and cell debris removed by centrifuged at 14000 rpm for 30 minutes at 4° C. The supernatant was collected and the total protein concentration was determined by BCA protein assay (Thermo Scientific™ Pierce™, Catlog No. 23225). The proteins (20-30 μg) of the tissue protein samples were subjected to 12% sodium dodecyl sulfate polyacrylamide gel electrophoresis (Bio-Rad mini-PROTEAN TGX Gels, Catlog No. 4561044) and transferred to polyvinylidene fluoride (PVDF) membranes. After the membranes were blocked with 5% skimmed milk in 1×TBS-T for 1 hour, they were incubated with the appropriate primary antibodies (1:200-1:1000) at 4° C. overnight, then incubated with HRP-conjugated secondary antibodies (1:3000) for 1 hour. Immunoreactivity was then detected using chemiluminescent substrate (Thermo Scientific™ SuperSignal™ West Pico PLUS, Catlog No. 34577). The intensities of the bands were quantified using Gel-imaging software. The quantified band intensity were normalized using GAPDH and expressed either normalized intensity or ratios with respect to saline treated mice.
(A western blot detects proteins with antibodies after separation by electrophoresis.)

Setting [1] is: day 14, vs saline treated controls.

For `Nc1ccncc1` [4-AP, 4-aminopyridine], where the note is “day 14”, the “keratinocyte K10 expression in healed epidermis” value is reported as “did not cause any change” and the “levels of PGP 9.5 compared with uninjured tissue” value is reported as “not significantly different”. Further, the K17 expressing cells result (day 14, vs control group) is given as “more abundant”. Moreover, the “inflammatory cells (IL-1β) and macrophages (F4/80) in granulation tissue” value (day 14, vs control wounds) was “less of inflammatory cells and macrophages”. Under setting [1], the “fold increase in Ki-67+” value was 2 fold, the “fold increase in NF-H axonal counts” value is recorded as 2.5 fold, the “fold increase in S100+ cells” value is listed as 3 fold and the “increase in K15+ cells” value is on record as “two fold increase”. Also, under “day 14, vs saline treated mice”, the SOX10 expression result is listed as “Significantly increased”, the “fold increase in NGF expression” value is listed as 4 fold and the substance-P expression result is listed as “Significantly increased”. In addition, the “fold increase in K14+ keratinocytes” value (day 14, vs saline-treated mice) is 2.5 fold. Further, the “double positive (S100+, p75-NTR+) SCs” value (day 14, vs saline, confirmed by WB for p75-NTR) was “increased numbers”. In addition, for the setting “day 14 wound bed”, the “K14+ keratinocytes” value amounted to 13.72±1.403%. Moreover, under “day 14 wound tissue”, the “Ki-67+ in hair follicle bulges and epidermis” value was found to be 21.87±2.763 cells/mm^2; the NF-H axonal counts is recorded as 194±50.51 count/mm^2; the NGF expression turned out to be 2429872±375280 integrated density/mm^2; the “S100+ cells around nerve bundles” value amounted to 6.483±1.163 % positive cells. Moreover, where the note is “day 14 wound tissue, vs saline”, the “CD31 intensity (blood vessels)” value is “statistically significant increases”, the TGF-β protein expression result is “significant increases”, the vimentin-positive fibroblasts entry was “more vimentin-positive fibroblasts” and the α-SMA-positive myofibroblasts result is “more”. For the same compound, under “fourteen days post wound”, the “PGP 9.5+ nerve fibres” value was found to be 4096938±713297 integrated density/mm^2 and the “PGP 9.5+ nerve fibres relative to saline treated mice” value is “twice as abundant”.
